PubChem BioAssay AID2060622 (Molecular Pharmacology Branch, DTP, NCI, 2025)
pIC50: −log10 of the molar value.

Test system: 242566-281-R-J2-PDC complex spheroid viability
Test: Anticancer human tumor 242566-281-R-J2-PDC patient-derived pancreatic carcinoma cell line growth inhibition [CLK]
Conditions: for pIC50: curve of first compound; for viability, T/C: stronger effect = lower value
In short: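 Patient-derived tumor cells grown as complex spheroids with HUVEC endothelial cells and mesenchymal stem cells, treated with drug combinations. Concentrations descend in half-log steps from near clinical Cmax, or from 10 microM if Cmax unknown.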

[1] = second compound 0.0316 µM, first compound 0.00949 µM
[2] = second compound 0.0316 µM, first compound 0.03 µM
[3] = second compound 0.0316 µM, first compound 0.0949 µM
[4] = second compound 0.0316 µM, first compound 0.3 µM
[5] = second compound 0.1 µM, first compound 0.00949 µM
[6] = second compound 0.1 µM, first compound 0.03 µM
[7] = second compound 0.1 µM, first compound 0.0949 µM
[8] = second compound 0.1 µM, first compound 0.3 µM
[9] = second compound 0.316 µM, first compound 0.00949 µM
[10] = second compound 0.316 µM, first compound 0.03 µM
[11] = second compound 0.316 µM, first compound 0.0949 µM
[12] = second compound 0.316 µM, first compound 0.3 µM
[13] = second compound 1 µM, first compound 0.00949 µM
[14] = second compound 1 µM, first compound 0.03 µM
[15] = second compound 1 µM, first compound 0.0949 µM
[16] = second compound 1 µM, first compound 0.3 µM
[17] = second compound 3.16 µM, first compound 0.00949 µM
[18] = second compound 3.16 µM, first compound 0.03 µM
[19] = second compound 3.16 µM, first compound 0.0949 µM
[20] = second compound 3.16 µM, first compound 0.3 µM
[21] = second compound 10 µM, first compound 0.00949 µM
[22] = second compound 10 µM, first compound 0.03 µM
[23] = second compound 10 µM, first compound 0.0949 µM
[24] = second compound 10 µM, first compound 0.3 µM
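Further: spheroids exposed to compounds for 7 days before readout.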
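Wherever viability, T/C is given: 100% = DMSO vehicle control wells.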

Structure (SMILES): C=CC(=O)Nc1cc(Nc2nccc(-c3cn(C)c4ccccc34)n2)c(OC)cc1N(C)CCN(C)C + CN1CCN(c2cc(C(=O)Nc3cc4cc(-c5cnn(C)c5)ccc4cn3)ccn2)CC1
- pIC50 (second compound 0.0316 µM): < 6.52
- pIC50 (second compound 0.1 µM): < 6.52
- pIC50 (second compound 0.316 µM): > 9.02
- pIC50 (second compound 1 µM): > 9.02
- pIC50 (second compound 3.16 µM): > 9.02
- pIC50 (second compound 10 µM): > 9.02
- viability, T/C (second compound 0.0316 µM, first compound 0.000949 µM): 92.7%
- viability, T/C (second compound 0.0316 µM, first compound 0.003 µM): 103%
- viability, T/C [1]: 91.8%
- viability, T/C [2]: 96.7%
- viability, T/C [3]: 95.1%
- viability, T/C [4]: 71.8%
- viability, T/C (second compound 0.1 µM, first compound 0.000949 µM): 102%
- viability, T/C (second compound 0.1 µM, first compound 0.003 µM): 85.8%
- viability, T/C [5]: 84.2%
- viability, T/C [6]: 73.6%
- viability, T/C [7]: 79.8%
- viability, T/C [8]: 62.9%
- viability, T/C (second compound 0.316 µM, first compound 0.000949 µM): 32.1%
- viability, T/C (second compound 0.316 µM, first compound 0.003 µM): 33.7%
- viability, T/C [9]: 27.7%
- viability, T/C [10]: 23%
- viability, T/C [11]: 25.2%
- viability, T/C [12]: 20.1%
- viability, T/C (second compound 1 µM, first compound 0.000949 µM): 4.67%
- viability, T/C (second compound 1 µM, first compound 0.003 µM): 4.02%
- viability, T/C [13]: 4.33%
- viability, T/C [14]: 3.28%
- viability, T/C [15]: 2.72%
- viability, T/C [16]: 2.12%
- viability, T/C (second compound 3.16 µM, first compound 0.000949 µM): 6.9%
- viability, T/C (second compound 3.16 µM, first compound 0.003 µM): 6.41%
- viability, T/C [17]: 6.23%
- viability, T/C [18]: 6.27%
- viability, T/C [19]: 5.66%
- viability, T/C [20]: 4.09%
- viability, T/C (second compound 10 µM, first compound 0.000949 µM): 2.35%
- viability, T/C (second compound 10 µM, first compound 0.003 µM): 1.98%
- viability, T/C [21]: 1.72%
- viability, T/C [22]: 2.34%
- viability, T/C [23]: 2.25%
- viability, T/C [24]: 1.2%

Structure (SMILES): NC(=O)C(=Cn1cnc(-c2cc(C(F)(F)F)cc(C(F)(F)F)c2)n1)c1cncnc1 + CN1CCN(c2cc(C(=O)Nc3cc4cc(-c5cnn(C)c5)ccc4cn3)ccn2)CC1
- pIC50 (second compound 0.0316 µM): 6.01
- pIC50 (second compound 0.1 µM): 6.33
- pIC50 (second compound 0.316 µM): > 8.02
- pIC50 (second compound 1 µM): > 8.02
- pIC50 (second compound 3.16 µM): > 8.02
- pIC50 (second compound 10 µM): > 8.02
- viability, T/C [1]: 99.3%
- viability, T/C [2]: 106%
- viability, T/C [3]: 97%
- viability, T/C [4]: 84.1%
- viability, T/C (second compound 0.0316 µM, first compound 0.949 µM): 50.9%
- viability, T/C (second compound 0.0316 µM, first compound 3 µM): 19.7%
- viability, T/C [5]: 92.5%
- viability, T/C [6]: 83.6%
- viability, T/C [7]: 84.4%
- viability, T/C [8]: 60%
- viability, T/C (second compound 0.1 µM, first compound 0.949 µM): 31.7%
- viability, T/C (second compound 0.1 µM, first compound 3 µM): 7.32%
- viability, T/C [9]: 29.2%
- viability, T/C [10]: 16.8%
- viability, T/C [11]: 6.44%
- viability, T/C [12]: 3.56%
- viability, T/C (second compound 0.316 µM, first compound 0.949 µM): 3.41%
- viability, T/C (second compound 0.316 µM, first compound 3 µM): 4.67%
- viability, T/C [13]: 3.11%
- viability, T/C [14]: 4.63%
- viability, T/C [15]: 6.18%
- viability, T/C [16]: 6.13%
- viability, T/C (second compound 1 µM, first compound 0.949 µM): 6.09%
- viability, T/C (second compound 1 µM, first compound 3 µM): 5.22%
- viability, T/C [17]: 5.89%
- viability, T/C [18]: 6.16%
- viability, T/C [19]: 8.1%
- viability, T/C [20]: 7.76%
- viability, T/C (second compound 3.16 µM, first compound 0.949 µM): 7.74%
- viability, T/C (second compound 3.16 µM, first compound 3 µM): 6.2%
- viability, T/C [21]: 1.11%
- viability, T/C [22]: 1.56%
- viability, T/C [23]: 0.89%
- viability, T/C [24]: 1.02%
- viability, T/C (second compound 10 µM, first compound 0.949 µM): 0.68%
- viability, T/C (second compound 10 µM, first compound 3 µM): 0.27%

Structure (SMILES): Nc1ccccc1NC(=O)c1ccc(CNC(=O)OCc2cccnc2)cc1 + CN1CCN(c2cc(C(=O)Nc3cc4cc(-c5cnn(C)c5)ccc4cn3)ccn2)CC1
- pIC50 (second compound 0.0316 µM): 5.57
- pIC50 (second compound 0.1 µM): 5.81
- pIC50 (second compound 0.316 µM): > 7.50
- pIC50 (second compound 1 µM): > 7.50
- pIC50 (second compound 3.16 µM): > 7.50
- pIC50 (second compound 10 µM): > 7.50
- viability, T/C (second compound 0.0316 µM, first compound 0.0316 µM): 95.9%
- viability, T/C (second compound 0.0316 µM, first compound 0.1 µM): 96.1%
- viability, T/C (second compound 0.0316 µM, first compound 0.316 µM): 84.2%
- viability, T/C (second compound 0.0316 µM, first compound 1 µM): 83.5%
- viability, T/C (second compound 0.0316 µM, first compound 3.16 µM): 44.2%
- viability, T/C (second compound 0.0316 µM, first compound 10 µM): 10.9%
- viability, T/C (second compound 0.1 µM, first compound 0.0316 µM): 92.5%
- viability, T/C (second compound 0.1 µM, first compound 0.1 µM): 82.8%
- viability, T/C (second compound 0.1 µM, first compound 0.316 µM): 70.5%
- viability, T/C (second compound 0.1 µM, first compound 1 µM): 65.8%
- viability, T/C (second compound 0.1 µM, first compound 3.16 µM): 31.6%
- viability, T/C (second compound 0.1 µM, first compound 10 µM): 5.31%
- viability, T/C (second compound 0.316 µM, first compound 0.0316 µM): 28.3%
- viability, T/C (second compound 0.316 µM, first compound 0.1 µM): 29.4%
- viability, T/C (second compound 0.316 µM, first compound 0.316 µM): 28.4%
- viability, T/C (second compound 0.316 µM, first compound 1 µM): 20.9%
- viability, T/C (second compound 0.316 µM, first compound 3.16 µM): 6.85%
- viability, T/C (second compound 0.316 µM, first compound 10 µM): 0.46%
- viability, T/C (second compound 1 µM, first compound 0.0316 µM): 4.47%
- viability, T/C (second compound 1 µM, first compound 0.1 µM): 4.78%
- viability, T/C (second compound 1 µM, first compound 0.316 µM): 4.55%
- viability, T/C (second compound 1 µM, first compound 1 µM): 3.08%
- viability, T/C (second compound 1 µM, first compound 3.16 µM): 2.04%
- viability, T/C (second compound 1 µM, first compound 10 µM): 1.1%
- viability, T/C (second compound 3.16 µM, first compound 0.0316 µM): 9.27%
- viability, T/C (second compound 3.16 µM, first compound 0.1 µM): 7.2%
- viability, T/C (second compound 3.16 µM, first compound 0.316 µM): 7.84%
- viability, T/C (second compound 3.16 µM, first compound 1 µM): 6.26%
- viability, T/C (second compound 3.16 µM, first compound 3.16 µM): 5.4%
- viability, T/C (second compound 3.16 µM, first compound 10 µM): 3.16%
- viability, T/C (second compound 10 µM, first compound 0.0316 µM): 2.19%
- viability, T/C (second compound 10 µM, first compound 0.1 µM): 1.81%
- viability, T/C (second compound 10 µM, first compound 0.316 µM): 1.73%
- viability, T/C (second compound 10 µM, first compound 1 µM): 2.14%
- viability, T/C (second compound 10 µM, first compound 3.16 µM): 1.57%
- viability, T/C (second compound 10 µM, first compound 10 µM): 0.86%
